Here are results for 31 compounds from patent US8324390B2, “Tetrazole-substituted anthranilamides as pesticides” (Bayer CropScience AG, priority 2008, dated 2012).

The nature of data set [1]: log P determination by HPLC (EEC Directive 79/831 Annex V.A8). Type of data set: physicochemical. On the procedure:
The measurements were carried out using an Agilent 1100 LC system with a 50*4.6 Zorbax Eclipse C18 1.8 μm column (oven temperature 55° C., flow rate 2.0 ml/min).
The following mobile phases were used:
Mobile phase A: acetonitrile+1000 μl of formic acid/l
Mobile phase B: Millipore water+900 μl of formic acid/l

Data set [2] has as its system larvae of the mustard beetle (Phaedon cochleariae). In words: Phaedon test (PHAECO spray treatment). Conditions: for pest or weed control at 100 g/ha: Phaedon cochleariae, in Brassica rapa, foliar, read-out: effect in % (beetle larvae killed).
The subject of data set [3] is caterpillars of the armyworm (Spodoptera frugiperda). The data set can be described thus: Spodoptera frugiperda test (SPODFR spray treatment). Type of data set: in vivo. The settings on record: Spodoptera frugiperda, foliar, read-out: effect in % (caterpillars killed). From the text:
Solvent: 78.0 parts by weight of acetone

[4] abbreviates: reversed-phase HPLC, Zorbax Eclipse C18 column, determined by HPLC according to EEC Directive 79/831 Annex V.A8, read-out: log P.
Setting [5] is: application rate 100 g/ha, maize leaf discs.
The mark [6] stands for this setting: reversed-phase HPLC, Zorbax Eclipse C18 column, by HPLC according to EEC Directive 79/831 Annex V.A8, read-out: log P.

Where two headings read alike, the source gives them in different places. Bounds are passed on as bounds.

Consider `CCNC(=O)c1cc(I)cc(C)c1NC(=O)c1cc(Cn2nnc(C(F)(F)F)n2)nn1-c1ncccc1Cl` [Example 66], for which the chromatographic logP in data set [1] (log P) was determined as 3.47. For the same compound, the pest or weed control at 100 g/ha in data set [2] and in data set [3] (in Zea mays) was at least 80% each time.
The compound `Cc1cc(Cl)cc(C(=O)NC2CC2)c1NC(=O)c1cc(Cn2nnc(C(F)(F)C(F)(F)F)n2)nn1-c1ncccc1Cl` [Example 127] displayed a chromatographic logP in data set [1] (log P) of 3.7. Besides, the pest or weed control at 100 g/ha in data set [2] and in data set [3] (in Zea mays) was at least 80% throughout.
`Cc1cc(C#N)cc(C(=O)NCC#N)c1NC(=O)c1cc(Cn2nnc(C(F)(F)C(F)(F)F)n2)nn1-c1ncccc1Cl` [Example 210]: the chromatographic logP in data set [1] (log P) amounted to 3.01. Besides, the pest or weed control at 100 g/ha in data set [2] and in data set [3] (in Zea mays) was at least 80% each time.
In the case of `CNC(=O)c1cc(Cl)cc(C)c1NC(=O)c1cc(Cn2nnnc2-c2ccc(C(F)(F)F)cc2)nn1-c1ncccc1Cl` [drawing 598], in data set [2] (4 g/ha), the “Kill in %/7 days” value amounted to 0%.
For `Cc1cc(I)cc(C(=O)NC2CC2)c1NC(=O)c1cc(Cn2nnnc2C(F)(F)F)nn1-c1ncccc1C(F)(F)F` [Example 456], the chromatographic logP in data set [1] (setting [4]) stood at 3.31. For the same compound, the pest or weed control at 100 g/ha in data set [2] and in data set [3] (setting [5]) was at least 80% each time.
For the compound `CNC(=O)c1cc(C#N)cc(C)c1NC(=O)c1cc(Cn2nnc(C(C)(C)C)n2)nn1-c1ncccc1Cl` [Example 101], the chromatographic logP in data set [1] (log P) turned out to be 2.62. For the same compound, the pest or weed control at 100 g/ha in data set [2] and in data set [3] (in Zea mays) was at least 80% in each case.
On to `Cc1cc(Cl)cc(C(=O)NC2CC2)c1NC(=O)c1cc(Cn2nnc(C(F)(F)F)n2)nn1-c1ncccc1C(F)(F)F` [Example 225], for which, in data set [1] (setting [6]), the chromatographic logP worked out at 3.39. Further, the pest or weed control at 100 g/ha in data set [2] and in data set [3] (setting [5]) was at least 80% each time.
For the compound `Cc1cc(Cl)cc(C(=O)NC(C)(C)C)c1NC(=O)c1cc(Cn2nnnc2C(F)(F)C(F)(F)F)nn1-c1ncccc1Br` [Example 514], the chromatographic logP in data set [1] (setting [4]) is 3.91. Further, the pest or weed control at 100 g/ha in data set [2] and in data set [3] (setting [5]) was at least 80% in each case.
In turn, `Cc1cc(Br)cc(C(=O)NC2CCC2)c1NC(=O)c1cc(Cn2nnc(C(F)(F)F)n2)nn1-c1ncccc1Cl` [Example 50] displayed a chromatographic logP in data set [1] (log P) of 3.71. Further, the pest or weed control at 100 g/ha in data set [2] and in data set [3] (in Zea mays) was at least 80% throughout.
Regarding `CNC(=O)c1cc(I)cc(C)c1NC(=O)c1cc(Cn2nnc(C(F)(F)F)n2)nn1-c1ncccc1C(F)(F)F` [Example 247], the chromatographic logP in data set [1] (setting [6]) worked out at 3.4. In addition, the pest or weed control at 100 g/ha in data set [2] and in data set [3] (setting [5]) was at least 80% throughout.
On to `Cc1cc(I)cc(C(=O)NC(C)C)c1NC(=O)c1cc(Cn2nnc(C(F)(F)F)n2)nn1-c1ncccc1Cl` [Example 71], for which, in data set [1] (log P), the chromatographic logP was 3.73. For the same compound, the pest or weed control at 100 g/ha in data set [2] and in data set [3] (in Zea mays) was at least 80% in each case.
On to `Cc1cc(Cl)cc(C(=O)NC(C)C)c1NC(=O)c1cc(Cn2nnc(-c3ccc(Br)cc3)n2)nn1-c1ncccc1Cl`, for which the “Kill in %/7 days” value in data set [2] (0.8 g/ha) is 0%.
`Cc1cc(C#N)cc(C(=O)NC(C)CC(F)(F)F)c1NC(=O)c1cc(Cn2nnc(C(F)(F)F)n2)nn1-c1ncccc1Cl` (centres unmarked) [Example 75] registered a chromatographic logP in data set [1] (log P) of 3.38. In addition, the pest or weed control at 100 g/ha in data set [2] is at least 80%.
Regarding `Cc1cc(Br)cc(C(=O)NC(C)C)c1NC(=O)c1cc(Cn2nnc(C(F)F)n2)nn1-c1ncccc1Cl` [Example 299], the chromatographic logP in data set [1] (log P) came to 3.08. The pest or weed control at 100 g/ha in data set [3] (in Zea mays) is at least 80%.
Take `Cc1cc(Cl)cc(C(=O)NC(C)C)c1NC(=O)c1cc(Cn2nnc(C(F)(F)C(F)(F)F)n2)nn1-c1ncccc1Cl` [drawing 595]: the “Kill in %/7 days” value in data set [2] (0.8 g/ha) turned out to be 100%.
For `Cc1cc(Cl)cc(C(=O)NC(C)(C)C)c1NC(=O)c1cc(Cn2nnnc2C(F)(F)C(F)(F)F)nn1-c1ccccc1Cl` [Example 536], the chromatographic logP in data set [1] (setting [4]) was determined as 4.41. The pest or weed control at 100 g/ha in data set [3] (setting [5]) was at least 80%.
The compound `CSC[C@H](C)NC(=O)c1cc(I)cc(C)c1NC(=O)c1cc(Cn2nnc(C(F)F)n2)nn1-c1ncccc1Cl` [Example 278] came in with a chromatographic logP in data set [1] (log P) of 3.41. Also, the pest or weed control at 100 g/ha in data set [3] (in Zea mays) is at least 80%.
The corresponding values for `Cc1cc(C)c(NC(=O)c2cc(Cn3nnc(C(F)(F)F)n3)nn2-c2ncccc2Cl)c(C(=O)NC(C)C)c1` [Example 79] are 3.29 and at least 80%.
With `CCOC1CCC(NC(=O)c2cc(C#N)cc(C)c2NC(=O)c2cc(Cn3nnc(C(F)(F)F)n3)nn2-c2ncccc2Cl)CC1` (centres unmarked) [Example 344], the chromatographic logP in data set [1] (setting [6]) stood at 3.6. The pest or weed control at 100 g/ha in data set [2] was at least 80%.
`Cc1cc(I)cc(C(=O)NC(C)(C)C)c1NC(=O)c1cc(Cn2nnc(C(F)(F)F)n2)nn1-c1ncccc1Cl` [Example 118] came in with a chromatographic logP in data set [1] (log P) of 4.12. Besides, the pest or weed control at 100 g/ha in data set [3] (in Zea mays) was at least 80%.
The corresponding values for `Cc1cc(C#N)cc(C(=O)NC(C)C#N)c1NC(=O)c1cc(Cn2nnc(C(F)(F)F)n2)nn1-c1ncccc1Cl` (centres unmarked) [Example 326] are 2.76 and at least 80%.
On to `CNC(=O)c1cc(Cl)cc(C)c1NC(=O)c1cc(Cn2nnnc2C(F)(F)F)nn1-c1ncccc1Cl` [drawing 597], for which the “Kill in %/7 days” value in data set [2] (4 g/ha) came out at 67%.
For `Cc1cc(Br)cc(C(=O)NC(C)(C)C)c1NC(=O)c1cc(Cn2nnnc2C(F)(F)F)nn1-c1ncccc1C(F)(F)F` [Example 458], the chromatographic logP in data set [1] (setting [4]) is 3.78. The pest or weed control at 100 g/ha in data set [3] (setting [5]) was at least 80%.
In the case of `Cc1cc(F)cc(C(=O)NC2CCC2)c1NC(=O)c1cc(Cn2nnc(C(F)(F)F)n2)nn1-c1ncccc1Cl` [Example 51], the chromatographic logP in data set [1] (log P) was 3.23. In addition, the pest or weed control at 100 g/ha in data set [3] (in Zea mays) is at least 80%.
Turning to `Cc1cc(C#N)cc(C(=O)NC(C)(C)C)c1NC(=O)c1cc(Cn2nnnc2C(F)(F)F)nn1-c1ccccc1Cl` [Example 489], the chromatographic logP in data set [1] (setting [4]) is 3.52. Moreover, in data set [3] (setting [5]), the pest or weed control at 100 g/ha was at least 80%.
`Cc1cc(Cl)cc(C(N)=O)c1NC(=O)c1cc(Cn2nnc(C(F)(F)F)n2)nn1-c1ncccc1Cl` [Example 106]: the chromatographic logP in data set [1] (log P) was 2.76. Moreover, the pest or weed control at 100 g/ha in data set [3] (in Zea mays) was at least 80%.
Take `CCNC(=O)c1cc(F)cc(C)c1NC(=O)c1cc(Cn2nnc(C(F)(F)F)n2)nn1-c1ncccc1Cl` [Example 35]: the chromatographic logP in data set [1] (log P) is 2.88. In addition, the pest or weed control at 100 g/ha in data set [3] (in Zea mays) is at least 80%.
On the same counts, the results for `CSC[C@H](C)NC(=O)c1cc(Cl)cc(Cl)c1NC(=O)c1cc(Cn2nnc(C(F)F)n2)nn1-c1ncccc1Cl` [Example 288] are 3.13 and at least 80%.
Consider `Cc1cc(I)cc(C(=O)NC2CCC2)c1NC(=O)c1cc(Cn2nnc(C(F)(F)F)n2)nn1-c1ncccc1Cl` [Example 72], for which, in data set [1] (log P), the chromatographic logP was found to be 3.85. Besides, the pest or weed control at 100 g/ha in data set [2] was at least 80%.
On the same counts, the results for `Cc1cc(C#N)cc(C(=O)NC(C)C2CCC2)c1NC(=O)c1cc(Cn2nnnc2C(F)(F)F)nn1-c1ncccc1Cl` (centres unmarked) [Example 194] are 3.25 and at least 80%.
Compound `Cc1cc(C#N)cc(C(=O)NCC2CCCCC2)c1NC(=O)c1cc(Cn2nnc(C(F)(F)F)n2)nn1-c1ncccc1Cl` [Example 93] had a chromatographic logP in data set [1] (log P) of 3.96. In addition, the pest or weed control at 100 g/ha in data set [2] was at least 80%.
